Reference: patent US4740233A, “Substituted 1,2,4-triazolo[1,5-a]-pyrimidine-2-sulfonamides and compositions and methods of controlling undesired vegetation and suppressing the nitrification of ammonium nitrogen in soil” (The Dow Chemical Company, priority 1986, dated 1988)

Experiments:
[1] = system: jimsonweed; assay: Preemergent control of plant species; type: in vivo, Datura stramonium; conditions: 0.25 lb/acre; for pest or weed control at 280.212 g/ha: Datura stramonium, pre-emergence, 336 h, read-out: percent preemergent control
Description: (§1) The seeds of various species of plants were planted in beds of good agricultural soil in a greenhouse. A number of compositions of the present invention, generally in the nature of an aqueous emulsion, were applied at rates listed in the table so as to deposit a predetermined amount of active ingredients uniformly throughout the surface of the bed. Another seed bed was treated only with water to serve as a control. After treatment the seed beds were maintained for two weeks under greenhouse conditions conducive for good plant growth and watered as necessary. Control refers to the reduction in growth compared to the observed results of the same untreated species.

[2] = system: sugar beet; assay: Preemergent control of plant species; type: in vivo, Beta saccharifera; conditions: 0.25 lb/acre; for plant injury at 280.212 g/ha: Beta vulgaris, pre-emergence, 336 h, read-out: percent preemergent control
Description: as §1

[3] = system: yellow foxtail; assay: Preemergent control of plant species; type: in vivo, Setaria lutescens; conditions: 0.25 lb/acre; for pest or weed control at 280.212 g/ha: Setaria, pre-emergence, 336 h, read-out: percent preemergent control
Description: as §1

[4] = system: velvetleaf; assay: Preemergent control of plant species; type: in vivo, Abutilon theophrasti; conditions: 0.25 lb/acre; for pest or weed control at 280.212 g/ha: Abutilon theophrasti, pre-emergence, 336 h, read-out: percent preemergent control
Description: as §1

[5] = system: cotton; assay: Preemergent control of plant species; type: in vivo, Gossypium spp.; conditions: 0.25 lb/acre; for plant injury at 280.212 g/ha: Gossypium hirsutum, pre-emergence, 336 h, read-out: percent preemergent control
Description: as §1

[6] = system: sorghum; assay: Preemergent control of plant species; type: in vivo, Sorghum vulgare; conditions: 0.25 lb/acre; for plant injury at 280.212 g/ha: Sorghum, pre-emergence, 336 h, read-out: percent preemergent control
Description: as §1

[7] = system: rice; assay: Preemergent control of plant species; type: in vivo, Oryza sativa; conditions: 0.25 lb/acre; for plant injury at 280.212 g/ha: Oryza sativa, pre-emergence, 336 h, read-out: percent preemergent control
Description: as §1

[8] = system: barnyardgrass; assay: Preemergent control of plant species; type: in vivo, Echinochloa crusgalli; conditions: 0.25 lb/acre; for pest or weed control at 280.212 g/ha: Echinochloa crus-galli, pre-emergence, 336 h, read-out: percent preemergent control
Description: as §1

[9] = system: corn; assay: Preemergent control of plant species; type: in vivo, Zea mays; conditions: 0.25 lb/acre; for plant injury at 280.212 g/ha: Zea mays, pre-emergence, 336 h, read-out: percent preemergent control
Description: as §1

[10] = system: annual morning glory; assay: Preemergent control of plant species; type: in vivo, Ipomoea spp.; conditions: 0.25 lb/acre; for pest or weed control at 280.212 g/ha: Ipomoea, pre-emergence, 336 h, read-out: percent preemergent control
Description: as §1

[11] = system: yellow nutsedge; assay: Preemergent control of plant species; type: in vivo, Cyperus esculentus; conditions: 0.25 lb/acre; for pest or weed control at 280.212 g/ha: Cyperus, pre-emergence, 336 h, read-out: percent preemergent control
Description: as §1

[12] = system: wheat; assay: Preemergent control of plant species; type: in vivo, Triticum aestivum; conditions: 0.25 lb/acre; for plant injury at 280.212 g/ha: Triticum aestivum, pre-emergence, 336 h, read-out: percent preemergent control
Description: as §1

[13] = system: rape; assay: Preemergent control of plant species; type: in vivo, Brassica napus; conditions: 0.25 lb/acre; for plant injury at 280.212 g/ha: Brassica napus, pre-emergence, 336 h, read-out: percent preemergent control
Description: as §1

[14] = system: johnson grass; assay: Preemergent control of plant species; type: in vivo, Sorghum halepense; conditions: 0.25 lb/acre; for pest or weed control at 280.212 g/ha: Sorghum halepense, pre-emergence, 336 h, read-out: percent preemergent control
Description: as §1

[15] = system: soybean; assay: Preemergent control of plant species; type: in vivo, Glycine max.; conditions: 0.25 lb/acre; for plant injury at 280.212 g/ha: Glycine max, pre-emergence, 336 h, read-out: percent preemergent control
Description: as §1

[16] = system: nitrification of ammonium nitrogen; assay: Suppression of nitrification of ammonium nitrogen in soil; conditions: 27° C.
Description: A sufficient volume of water was added to 20 g of the soil in a wide-mouth, screw-cap, 4-ounce, glass bottle, such that the moisture content of the mixture was made equal to the 1/3 bar tension value for that soil. The mixture was thoroughly mixed before sealing. […] Acetone slows the rate of soil nitrification and its concentration must be carefully controlled. Single samples of each test chemical were incubated for two weeks at 27° C.
The experiment comprised the following types of samples:
The soil samples were analyzed as follows: Sufficient ammonium sulfate extracting solution was added to the sample, such that the total volume of added water was 50 ml (included water added during sample preparation). The capped mixture was shaken 10 minutes to solubilize nitrate and the soil particulates were allowed to settle. The nitrate concentration in the water phase was determined with a nitrate-specific ion electrode such as Orion Model 93-07.
The non-nitrate nitrogen remaining (% NH4 -N remaining) in the soil after two weeks (performance value) was calculated as follows: [formula]

[17] = system: wild oats; assay: Preemergent control of plant species; type: in vivo; conditions: Avena fatua, pre-emergence, 336 h; 0.25 lb/acre; read-out: percent preemergent control
Description: as §1

| Structure (SMILES) | pest or weed control at 280.212 g/ha [1] [%] | plant injury at 280.212 g/ha [2] [%] | pest or weed control at 280.212 g/ha [3] [%] | pest or weed control at 280.212 g/ha [4] [%] | plant injury at 280.212 g/ha [5] [%] | plant injury at 280.212 g/ha [6] [%] | plant injury at 280.212 g/ha [7] [%] | pest or weed control at 280.212 g/ha [8] [%] | plant injury at 280.212 g/ha [9] [%] | pest or weed control at 280.212 g/ha [10] [%] | pest or weed control at 280.212 g/ha [11] [%] | plant injury at 280.212 g/ha [12] [%] | plant injury at 280.212 g/ha [13] [%] | pest or weed control at 280.212 g/ha [14] [%] | plant injury at 280.212 g/ha [15] [%] | % NH4-N Remaining After 2 Weeks Incubation ([16]; 0.06 ppm) [%] | % NH4-N Remaining After 2 Weeks Incubation ([16]; 0.25 ppm) [%] | % NH4-N Remaining After 2 Weeks Incubation ([16]; 1 ppm) [%] | % NH4-N Remaining After 2 Weeks Incubation ([16]; 4 ppm) [%] | pest or weed control at 280.212 g/ha [17] [%] | also measured |
| --- | --- | --- | --- | --- | --- | --- | --- | --- | --- | --- | --- | --- | --- | --- | --- | --- | --- | --- | --- | --- | --- |
| Cc1ccn2nc(S(=O)(=O)N(C(=O)CC(C)(C)C)c3c(F)cccc3F)nc2n1 [Compound 278] | 100 | 100 | 100 | 100 | 100 | 100 | 90 | 100 | 60 | 100 | 100 | 70 | 100 | 90 | 70 |  |  |  |  |  |  |
| Cc1ccc(Cl)c(NS(=O)(=O)c2nc3nc(C)c(Cl)c(C)n3n2)c1Cl [Compound 199] | 0 | 90 | 0 | 70 | 20 |  | 0 |  | 0 | 20 | 0 |  | 100 | 0 | 70 | 40 | 63 | 78 | 88 | 0 |  |
| CC(=O)N(c1c(Cl)cccc1Cl)S(=O)(=O)c1nc2nc(C)ccn2n1 [Compound 268] | 100 | 100 | 100 | 100 | 100 | 100 | 100 |  | 80 | 90 | 100 |  | 100 | 80 | 0 | 53 | 71 | 80 | 92 | 30 |  |
| COC(=O)c1cccc(C)c1NS(=O)(=O)c1nc2nccc(C)n2n1 [Compound 189] | 80 | 100 | 80 | 100 | 100 | 100 | 90 | 80 | 80 | 50 | 100 | 80 | 100 | 70 | 80 |  |  |  |  |  |  |
| Cc1ccn2nc(S(=O)(=O)Nc3c(F)cccc3[N+](=O)[O-])nc2n1 [Compound 173] |  |  |  |  |  |  |  |  |  |  |  |  |  |  |  |  |  |  |  |  | percent preemergent control [1]: 0%; percent preemergent control [2]: 90%; percent preemergent control [3]: 50%; percent preemergent control [4]: 0%; percent preemergent control [5]: 50%; percent preemergent control [6]: 30%; percent preemergent control [7]: 70%; percent preemergent control [8]: 30%; percent preemergent control [9]: 30%; percent preemergent control [10]: 0%; percent preemergent control [11]: 0%; percent preemergent control [12]: 20%; percent preemergent control [13]: 80%; percent preemergent control [14]: 70%; percent preemergent control [15]: 0% |
